Read-outs that look alike come from different tables or passages of the source.
Experiments:
[1] = Single-turnover; design: species or system [13, 20]; conditions: read-out: Kd (incoming nucleotide, Pol•DNA complex), Pol β, 37 °C
[2] = Single-turnover; design: species or system [13, 20]; conditions: read-out: Kd (incoming nucleotide, Pol•DNA complex), Pol λ, 37 °C
[3] = Single-turnover; design: species or system [13, 20]; conditions: read-out: Kd (incoming nucleotide, Pol•DNA complex), Pol η, 37 °C
[4] = Single-turnover; design: species or system [13, 20]; conditions: Pol κ; for Kd: read-out: Kd (incoming nucleotide, Pol•DNA complex), 37 °C
[5] = Single-turnover; design: species or system [13, 20]; conditions: Pol ι; for Kd: read-out: Kd (incoming nucleotide, Pol•DNA complex), 37 °C
[6] = Single-turnover; design: species or system [13, 20]; conditions: Rev1; for Kd: read-out: Kd (incoming nucleotide, Pol•DNA complex)
[7] = Single-turnover kinetic assays, summary over the non-canonical human pols; design: species or system [13, 20]
[8] = read-out: Kd (incoming nucleotide, Pol•DNA complex); HIV-1 RT; opposite template dC; 37 °C; cited from earlier work
[9] = read-out: Kd (incoming nucleotide, Pol•DNA complex), Pol β, 37 °C, cited from earlier work
[10] = read-out: Kd (incoming nucleotide, Pol•DNA complex), Pol λ, 37 °C, cited from earlier work
[11] = read-out: Kd (incoming nucleotide, Pol•DNA complex), Pol η, 37 °C, cited from earlier work
[12] = read-out: Kd (incoming nucleotide, Pol•DNA complex), Pol κ, 37 °C, cited from earlier work
[13] = Pol ι, 37 °C, cited from earlier work; for Kd: read-out: Kd (incoming nucleotide, Pol•DNA complex)
[14] = Rev1, 37 °C, cited from earlier work; for Kd: read-out: Kd (incoming nucleotide, Pol•DNA complex)
[15] = read-out: Kd (incoming nucleotide, Pol•DNA complex), Pol γ, 37 °C, cited from earlier work
[16] = Pols β, λ, η, ι, κ, Rev1; cited from earlier work
[17] = read-out: Kd (incoming nucleotide, Pol•DNA complex); T7 exo; opposite template dT; 37 °C; cited from earlier work

C=C1[C@H](COP(=O)(O)OP(=O)(O)OP(=O)(O)O)[C@@H](O)C[C@@H]1n1cnc2c(=O)[nH]c(N)nc21 [ETV-TP, entecavir 5′-triphosphate]
Kd ([1]; opposite template dC): 0.26 ± 0.04 µM
Kd ([2]; opposite template dC): 0.09 ± 0.02 µM
Kd ([3]; opposite template dC): 2.4 ± 0.4 µM
Kd ([4]; opposite template dC): 4.2 ± 0.1 µM
Kd ([5]; opposite template dC): 33 ± 5 µM
Kd ([6]; opposite template dC, 37 °C): 56 ± 10 µM
Rate of incorporation slower than dGTP, on average ([7]; Pols β, λ, η, ι, κ, Rev1): 120 fold
Binding affinity tighter than dGTP, on average ([7]; except for Rev1): approximately 20 fold
Kd [8]: 2230 ± 670 nM

Nc1ccn([C@H]2CS[C@@H](COP(=O)(O)OP(=O)(O)OP(=O)(O)O)O2)c(=O)n1 [L-3TC-TP, β-L-2′,3′-dideoxy-3′-thiacytidine 5′-triphosphate]
Kd ([9]; opposite template dG): 0.18 ± 0.02 µM
Kd ([10]; opposite template dG): 106 ± 10 nM
Kd ([11]; opposite template dG): 3.3 ± 0.3 µM
Kd ([12]; opposite template dG): 4 ± 0.5 µM
Kd ([13]; opposite template dG): 96 ± 8 µM
Kd ([14]; opposite template dG): 1040 ± 100 nM
Kd ([15]; opposite template dG): 9.2 ± 0.9 µM
Decrease of Kd compared to dCTP, on average [16]: 6 fold

Cc1cn([C@@H]2C[C@@H](O)[C@H](COP(=O)(O)OP(=O)(O)OP(=O)(O)O)O2)c(=O)[nH]c1=O [L-TBV-TP, β-L-2′-deoxythymidine 5′-triphosphate]
Kd ([1]; opposite template dA): 11 ± 1 µM
Kd ([2]; opposite template dA): 53 ± 6 µM
Kd ([3]; opposite template dA): 400 ± 100 µM
Kd ([4]; opposite template dA): 90 ± 20 µM
Kd ([5]; opposite template dA): 100 ± 30 µM
Kd (incoming nucleotide, Pol•DNA complex) ([6]; opposite template dA, 37 °C): No observed incorporation
Selection factors, range over the non-canonical human pols ([7]; Pols β, λ, η, ι, κ, Rev1, analog vs its natural dNTP, 37 °C): greater than 8,000
Binding to the Pol•DNA complex weakened compared to dTTP, on average ([7]; pols other than Rev1): 10 fold

Nc1ncnc2c1ncn2CCOCP(=O)(O)OP(=O)(O)OP(=O)(O)O [PMEA-DP, diphosphate of 9-[2-(phosphonomethoxy)ethyl]adenine]
Kd ([1]; opposite template dT): 65 ± 6 µM
Kd ([2]; opposite template dT (21-19C-41merTG)): 4.5 ± 0.3 µM
Kd ([3]; opposite template dT): 55 ± 18 µM
Decrease of rate of incorporation relative to dATP ([4]; opposite template dT): 60 fold
Ground-state binding affinity (1/Kd) weaker than dATP ([4]; opposite template dT): 3 fold
Kd ([4]; opposite template dT): 23 ± 3 µM
Decrease of rate of incorporation relative to dATP ([5]; opposite template dT): 30 fold
Ground-state binding affinity (1/Kd) relative to dATP ([5]; opposite template dT): unchanged
Kd ([5]; opposite template dT): 180 ± 40 µM
Decrease of rate of incorporation relative to dATP ([6]; opposite template dT): 4 fold
Ground-state binding affinity (1/Kd) weaker than dATP ([6]; opposite template dT): 60 fold
Kd ([6]; opposite template dT, 37 °C): 120 ± 20 µM

CC(Cn1cnc2c(N)ncnc21)OCP(=O)(O)OP(=O)(O)OP(=O)(O)O (stereo not drawn) [PMPA-DP, diphosphate of 9-[2-(phosphonomethoxy)propyl]adenine]
Kd ([9]; opposite template dT): 50 ± 10 µM
Kd ([10]; opposite template dT): 3700 ± 900 nM
Kd ([11]; opposite template dT): 90 ± 10 µM
Kd ([12]; opposite template dT): 3000 ± 2000 µM
Kd (incoming nucleotide, Pol•DNA complex) ([13]; opposite template dT): No observed incorporation
kp (maximum rate of incorporation) ([13]; opposite template dT): too inefficient to be observed
Kd (incoming nucleotide, Pol•DNA complex) ([14]; opposite template dT): No observed incorporation
kp (maximum rate of incorporation) ([14]; opposite template dT): too inefficient to be observed
Kd ([15]; opposite template dT): 40.3 ± 5.7 µM
Kd [17]: 268 ± 39 µM

Nc1ncnc2c1ncn2[C@H]1C[C@H](O)[C@@H](COP(=O)(O)OP(=O)(O)OP(=O)(O)O)O1 [dATP]
Kd ([9]; opposite template dT): 9.2 ± 1 µM
Kd ([10]; opposite template dT): 900 ± 300 nM
Kd ([11]; opposite template dT): 130 ± 30 µM
Kd ([12]; opposite template dT): 7 ± 1 µM
Kd ([13]; opposite template dT): 260 ± 40 µM
Kd ([14]; opposite template dT): 2000 ± 300 nM
Kd ([15]; opposite template dT): 0.8 ± 0.1 µM
Kd [17]: 8 ± 2 µM

Nc1ccn([C@H]2C[C@H](O)[C@@H](COP(=O)(O)OP(=O)(O)OP(=O)(O)O)O2)c(=O)n1 [dCTP]
Kd ([9]; opposite template dG): 0.71 ± 0.04 µM
Kd ([10]; opposite template dG): 900 ± 100 nM
Kd ([11]; opposite template dG): 25 ± 4 µM
Kd ([12]; opposite template dG): 32 ± 5 µM
Kd ([13]; opposite template dG): 50 ± 5 µM
Kd ([14]; opposite template dG): 2200 ± 300 nM
Kd ([15]; opposite template dG): 1.1 ± 0.1 µM

Nc1nc2c(ncn2[C@H]2C[C@H](O)[C@@H](COP(=O)(O)OP(=O)(O)OP(=O)(O)O)O2)c(=O)[nH]1 [dGTP]
Kd ([1]; opposite template dC): 8.7 ± 0.4 µM
Kd ([3]; opposite template dC): 80 ± 10 µM
Kd ([4]; opposite template dC): 10.6 ± 0.9 µM
Kd ([5]; opposite template dC): 141 ± 8 µM
Kd ([6]; opposite template dC, 37 °C): 3.9 ± 0.8 µM
Kd ([10]; opposite template dC): 2100 ± 300 nM
Kd [8]: 1760 ± 510 nM

Cc1cn([C@H]2C[C@H](O)[C@@H](COP(=O)(O)OP(=O)(O)OP(=O)(O)O)O2)c(=O)[nH]c1=O [dTTP]
Kd ([9]; opposite template dA): 3.5 ± 0.5 µM
Kd ([10]; opposite template dA): 2600 ± 400 nM
Kd ([11]; opposite template dA): 41 ± 5 µM
Kd ([12]; opposite template dA): 11 ± 0.5 µM
Kd ([13]; opposite template dA): 13 ± 1 µM
Kd ([14]; opposite template dA): 6000 ± 1000 nM

— PMC3259259 (Chemical Research in Toxicology, 2011)
